Legend:
[1] = test system: Klebsiella pneumoniae (DSM 30104); assay: MIC determination by broth dilution (CLSI M07), 96-well plates; format: cell-based; conditions: K. pneumoniae; range tested: Comp. 1 100-0.05 g/L, D-mannose 65-0.03 g/L; 24 h
Method: (§1) The antimicrobial activity of the product Comp. 1 in Example 10 was tested in vitro according to method CLSI M07 "Methods for dilution Antimicrobial susceptibility tests for bacteria that grow aerobically".
(§2) For this purpose, the MIC (Minimum Inhibitory Concentration) values were determined with respect to the main microorganisms responsible for urinary tract infections.
(§3) More specifically, the microorganisms utilised were: Escherichia coli (DSM 1576), Klebsiella pneumoniae (DSM 30104), and Enterococcus faecalis(DSM 20477).
(§4) For each experiment conducted, the bacteria stated above were revived from a cell bank stored at -80°C. […]
(§5) The assay to determine the MIC was conducted in 96-well plates testing 12 concentrations (serial dilutions) of each sample. 200 µL of the sample, prepared at a concentration of 2x with respect to the maximum concentration being tested, was dispensed into the first well and 100 µL medium was added to the subsequent wells, performing serial dilutions of 1:2 up to 12th well. Finally, 100 µL of each microorganism at a concentration of 10^5 was inoculated into each well.
(§6) Two antibiotics were used as controls: Fosfomycin (Sigma) and Ceftriaxone (Sigma) at different final concentrations based on the microorganism utilised; both the antibiotics were dissolved in sterile water and then filtered with 0.22 µm filters.
(§7) Growth was tested and the sterility of the medium and of the product was tested. The antimicrobial activity of the D-mannose was also assessed individually. The plates thus prepared were incubated at 37°C for 24h and the results were then observed (Figure 1). The final concentrations tested for each product analysed are stated in Table 2.

[2] = test system: Escherichia coli (DSM 1576); assay: as above; format: cell-based; conditions: E. coli; range tested: Comp. 1 100-0.05 g/L, D-mannose 65-0.03 g/L; 24 h
Method: as §1, §2, §3, §4, §5, §6, §7

[3] = test system: Enterococcus faecium; assay: MBIC, comparison with D-mannose, crystal violet staining; format: cell-based
Method: (§8) To determine the MBIC with the product Comp. 1 in Example 10 with respect to the D-mannose, 48-well plates were utilised. 200 µL of the product Comp. 1, prepared at a concentration of 2x with respect to the maximum concentration being tested, was dispensed into the first well and […] was added to the subsequent wells, performing serial dilutions of 1:2 up to the 8th well. Finally, 200 µL of each microorganism, at a concentration of 10^5, was inoculated into each well. The biofilm inhibition activity of the D-mannose at the same concentration as that present in the product Comp. 1 was also assessed. The multiwell plates were incubated at 37°C for 24 hours and then the supernatant present was removed, together with the planktonic bacteria not attached to the plate. The biofilm was then washed 3 times with PBS and subsequently the cells were fixed by means of incubation at 60°C for 2 hours, before being stained with crystal violet. 100 µL crystal violet dissolved in deionised water was dispensed into each well and, after 5 minutes of incubation at room temperature, each well was finally washed three times with PBS 1x. The biofilm inhibition activity was viewed by microscopic observation under stereomicroscope and optical microscope using the phase-contrast method. The final concentrations tested for each compound are stated in Table 6. Table 6 [table]

[4] = test system: Klebsiella pneumoniae; assay: as above; format: cell-based
Method: as §8

[5] = test system: Escherichia coli; assay: as above; format: cell-based
Method: as §8

[6] = test system: Enterococcus faecium; assay: MIC determination by broth dilution (CLSI M07), 96-well plates; format: cell-based; conditions: E. faecium; range tested: Comp. 1 100-0.05 g/L, D-mannose 65-0.03 g/L; 24 h
[7] = test system: IL-8; assay: Anti-inflammatory activity: IL-8 production induced by TNFα, ELISA; format: cell-based, human; conditions: 0.2 µg/mL TNFα, 6 hours
From the text: We assessed the capacity of the product Comp. 1 in Example 10 to inhibit or reduce the inflammatory state induced, in the same cells as in the previous example, by pro-inflammatory cytokine TNFα. This treatment led to the production of interleukin 8 (IL-8), which is cause of the "recruitment" of white blood cells to the site of inflammation. The IL-8 levels are directly proportional to the intensity of said inflammation.
The 6 product concentrations utilised in the anti-inflammatory test were chosen based on the cell viability test results. […] This is because the product per se leads to the reduction, and therefore the staining, of the MTT.
We first determined the optimal amount of TNFα to perform the test. […] The treatment was performed at 37°C and 5% CO2 for a total of 6 hours; aliquots of 200 µL of the growth medium were taken at the start of the treatment (T0) and after 1, 2, 4 and 6 hours, and then analysed by ELISA test. […]
Anti-inflammatory drug dexamethasone (dex) at a concentration of 0.1 mg/mL was utilised as a positive control. The treatment was performed for 6 hours, at the end of which as aliquots of 200 µL of the growth medium were taken and then analysed by ELISA test. […] The quantification was performed by setting up a calibration curve with different concentrations of a standard IL-8 solution, supplied with the kit. […]

[8] = test system: Klebsiella Pneumoniae DSM 30104; assay: MBIC test of composition versus its components, crystal violet absorbency at 595 nm; format: cell-based; conditions: MBIC K. pneumoniae
Method: (§9) The composition of Example 1 was tested to assess the capacity to inhibit the formation of biofilm shown by the following microorganisms: • Klebsiella Pneumoniae DSM 30104 • Enterococcus Faecium DSM 20477
(§10) The bacteria stated above were revived from the working cell bank, stored at -80°C, for each experiment conducted.
(§11) The tests were conducted on the following formulations: • Mannose 3000 mg + NAC 600 mg + PEA 600 mg (i.e. composition Example 1) • Mannose 3000 mg + NAC 600 mg • PEA 600 mg
(§12) The three formulations were dissolved at 100 gr/l in sterile TSB/TSYEM medium and then utilised to perform the MBIC test as follows.
(§13) MBIC 48-well plates were utilised for the determination. 800 µL sample, prepared at a concentration of 2x with respect to the maximum concentration being tested, was dispensed into the first well and 400 µL medium was added to the subsequent wells, performing serial dilutions of 1:2 up to the 8th well. Finally, 400 µL of each microorganism at a concentration of 10^5 was inoculated into each well. The multiwell plates were incubated at 37°C for 24 hours and then the supernatant present was removed, together with the planktonic bacteria not attached to the plate.
(§14) The biofilm was then washed 3 times with sterile deionised water and subsequently the cells were fixed by means of incubation at 60°C for 2 hours, before being stained with crystal violet. The crystal violet staining was performed to assess the effect of the product and the components thereof on the biofilm formation. 200 µL of 0.02% crystal violet dissolve in deionised water was dispensed into each well and, after 5 minutes of incubation at room temperature, each well was finally washed three times with sterile deionised water. The biofilm inhibition activity was viewed by microscopic observation under stereomicroscope.
(§15) At the end of the microscopic observation of the condition of the biofilm by staining, the stain fixed to the biofilm treated was extracted utilising 100% methanol for 5 minutes at room temperature. The methanolic extract thus obtained was analysed under spectrophotometer to measure the absorbency at 595 nm. As the solution stain intensity obtained is proportional to the biofilm remaining, absorbency is a quantitative parameter which can be used to measure the amount of biofilm. Absorbency was therefore utilised to determine the biofilm decrease percentage by comparing the data obtained following treatments against the untreated biofilm control.

[9] = test system: Enterococcus Faecium DSM 20477; assay: as above; format: cell-based; conditions: E. faecium MBIC
Method: as §9, §10, §11, §12, §13, §14, §15

[10] = test system: Enterococcus faecium; assay: MBEC test of composition versus its components, 24 h preformed biofilm, crystal violet; format: cell-based; conditions: MBEC E. faecium
Method: To determine the minimum biofilm eradication concentration, 48-well plates were utilised. The microorganisms were incubated for 24 h at 37°C to allow the formation of the biofilm. Once formed, the biofilms were treated with the composition in Example 1 and the respective components (as per Example 17) to eradicate the biofilm. In particular, after the formation of the biofilm, the supernatant was suctioned and replaced with solutions containing decreasing concentrations of the product. The plates thus prepared were incubated for 24 h at 37°C. At the end of the incubation time, the supernatant present in each well was removed, together with the bacteria that was not attached to the plate and following the washes with sterile deionised water the plates were incubated at 60°C for 2 hours to fix the cells before the staining with crystal violet. The crystal violet staining was performed to assess the effect of the product and of the components thereof on the removal of the biofilm. 200 µL of crystal violet dissolved in deionised water at a concentration of 0.02% was dispensed into each well and, after 5 minutes of incubation at room temperature, each well was washed three times with sterile deionised water. The biofilm eradication activity was viewed under microscopic observation.

Question: With `O=C[C@@H](O)[C@@H](O)[C@H](O)[C@H](O)CO` [D-mannose] as the compound, how does the antimicrobial activity [1] read?
Answer: did not demonstrate any antimicrobial activity

Question: What about the antimicrobial activity [2] of the same compound?
Answer: did not demonstrate any antimicrobial activity

Question: And the “concentration of the mannose alone needed for the same efficaciousness as Comp. 1” value (“concentration … as Comp. 1” for short) ([3]; E. faecium biofilm)?
Answer: approximately 10 times

Question: And the “concentration with evident activity on the biofilm” value ([3]; E. faecium, 24 h)?
Answer: 65 g/L

Question: What about the “concentration … as Comp. 1” value ([4]; K pneumoniae biofilm) of the same compound?
Answer: approximately 10 times

Question: And the “concentration active on biofilm formation” value ([4]; K. pneumoniae, 24 h)?
Answer: 8.13 g/L

Question: What about the “concentration … as Comp. 1” value ([5]; E. coli biofilm) of the same compound?
Answer: approximately 2.5 times

Question: What about the “concentration active on biofilm formation” value ([5]; E. coli, 24 h) of the same compound?
Answer: 32.5 g/L

Question: And the antimicrobial activity [6]?
Answer: did not demonstrate any antimicrobial activity

Question: What does the source list for `C[C@@H]1C[C@H]2[C@@H]3CCC4=CC(=O)C=C[C@]4(C)[C@@]3(F)[C@@H](O)C[C@]2(C)[C@@]1(O)C(=O)CO` [Dex, dexamethasone]?
Answer: concentration of IL-8 with respect to the cells treated solely with TNFα ([7]; Dex 0.1 mg/mL, TNFα alone = 100): 69%; IL-8 produced less than that produced by the cells treated solely with TNFα ([7]; Dexamethasone 0.1 mg/mL): 31%

Question: Which results are given for `CCCCCCCCCCCCCCCC(=O)NCCO` [PEA, palmitoylethanolamide]?
Answer: Abs 595 nm ([8]; 1.56 g/L product of Example 1, components at the same concentration as in the composition, untreated biofilm 0.176): 0.129; % decrease ([8]; treated versus untreated biofilm, 1.56 g/L product of Example 1): 26.70%; Abs 595 nm ([9]; 3.13 g/L product of Example 1, components at the same concentration as in the composition, untreated biofilm 0.318): 0.304; % decrease ([9]; treated versus untreated biofilm, 3.13 g/L product of Example 1): 4%; Abs 595 nm ([10]; 24 h biofilm, 24 h treatment, untreated biofilm 2.09): 2.098; % decrease ([10]; treated versus untreated biofilm): 0%
